What was measured:
MM1.S cells = assay: Anti-proliferative assay (AlamarBlue) in MM1.S cells; type: cell-based; details: Homo sapiens, 72 h, 3 days of culture, read-out: MM1.S Antiproliferative GI50/μM
Experimental: Anti-proliferative assay The anti-proliferative effect of the compounds was assessed by AlamarBlue assay in MM1.S cells which were originally derived from a multiple myeloma patient. This assay is based on Resazurin, a non-fluorescent indicator dye converted to bright red-fluorescent resorufin via the reduction reactions of metabolically active cells. The amount of fluorescence produced is proportional to the number of living cells. MM.1S cells are cultured in RPMI-1640 medium (Gibco®) plus 10% Fetal bovine serum (FBS) and 1 mM L-glutamine. 12-24 hours before compound dosing, 90 μL of cell suspension (18,750 cells) was seeded into 96-well microtiter plates (black, flat bottom). On the day of compound dosing, compounds were serially diluted 1:3 in 100% DMSO using columns 2-10 of a 96-well microtiter plate. Column 11 of compound serial plate contained only DMSO. All wells were then further diluted 1:30 in media. 10 μL of compound or DMSO alone in media was added to cell plates columns 2-11 in triplicate. In addition, 1 plate had 10 μL of media added and was developed using alamar blue. Plates developed on the day of compound addition were referred to as Day 0. Dosed plates were cultured 3 days under normal conditions (RPMI-1640 plus 10% FBS and 1 mM L-glutamine) After 3 days of culture, dosed plates are developed using either MTS or alamar blue. For each compound concentration, % net growth was calculated by
(Day 3 dosed well-Average Day 0)/(Average Day 3 DMSO control-Average Day 0). The GI50, the concentration that causes 50% of growth inhibition, of each compound was calculated using the % net growth as defined by National Cancer Institute (NCI).

cMyc protein = assay: Assay monitoring cMyc protein modulation in MM1.S cells (flow cytometry); type: cell-based; details: Homo sapiens, c-Myc protein level, 16 hours treatment, read-out: MM1.S “MoA” IC50/μM
Experimental: Assay Monitoring cMyc Protein Modulation
Multiple myeloma MM1.S cells were cultured in RPMI-1640 medium containing 10% FBS and 1% L-glutamine under standardized conditions in a humidified incubator (37° C. and 5% CO2). The impact of cMyc protein modulation induced by bromodomain inhibitors was assessed by staining and quantifying c-Myc protein level after compound treatment using a flow cytometer Assay, carried out in 96-well plate format with 200K cells per well. Cells were treated with serially diluted compounds 16 hours before fixing with 2% paraformaldehyde (final concentration) for 10 minutes at 37° C. After being permeablized by ice cold 90% methanol at 4° C. for 30 min, cells were washed, blocked by buffer (0.5% FBS in phosphate-buffered saline (PBS) buffer) for 10 minutes at room temperature, and stained with cMyc antibody for 1 hour (Cell Signaling Technology®5605, 1:200 dilution). Cells were washed and stained by incubating with Alexa-488 conjugated anti-Rabbit IgG (Cell Signaling Technology®#4412, 1:1000 dilution) at RT for 30 minutes. After staining, cells were washed again and fixed with 2% paraformaldehyde in PBS and ready for analysis by BD FACSCalibur™ flow cytometer. Fluorescence geometric mean was calculated through FlowJo (TreeStar Inc), maximal inhibition signal was determined by control compound treatment at high dose across each plate, and minimal inhibition signal was determined by DMSO treatment. IC50 was calculated by fitting the dose-response data points which are normalized against max and min signals as percentage of inhibition using a standard 4-Parameter-Logistic nonlinear regression model.

BRD4 (1) [1] = molecular target: T1, BRD4 (1) (Homo sapiens, UniProt O60885); assay: BROMOscan assay (DiscoverX) BRD4(1); type: binding; set-up: purchased Discoverx (BROMOscan service)
Experimental: (§1) BROMOscan™ Assay (ex Discoverx)
(§2) The ability of the compounds to bind to a bromodomain protein was tested by Discoverx using their proprietory ligand binding site-directed competition assay. Supplied compounds were anonymised.
(§3) The BROMOscan assay is based on the principle that test compounds that bind the bromodomain protein prevent its binding to an immobilized ligand thus reducing the amount of protein captured on a solid support. […] Screening “hits” are identified by measuring the amount of bromodomain captured in test versus control samples by using a quantitative, precise and ultra-sensitive qPCR method that detects the associated DNA label. In a similar manner, dissociation constants (Kds) for test compound-bromodomain interactions are calculated by measuring the amount of bromodomain protein captured on the solid support as a function of the test compound concentration.

BRD4 (2) = molecular target: T2, BRD4 (2) (Homo sapiens, UniProt O60885); assay: BROMOscan assay (DiscoverX) BRD4(2); type: binding
T2 construct: purchased Discoverx (BROMOscan service)
Experimental: as §1, §2, §3

BRD4 (1) [2] = molecular target: T1, BRD4 (1); assay: Alpha-Screen assay, BRD4 BD1; type: binding; set-up: 6His-TEV-BRD4, amino acid residues 42-169, corresponding to the BD1 domain; details: 6His-TEV-BRD4 residues 42-169 (BD1), H4K5,8,12,16(Ac)4-biotin peptide
Experimental: The ability of the compounds to bind to a bromodomain protein was tested in an AlphaScreen® assay. The assay is based on the interaction between Histidine-tagged bromodomain protein which can bind to Nickel-chelate donor beads, and a Biotinylated acetyl lysine peptide corresponding to a histone amino acid sequence, which can bind to streptavidin-conjugated acceptor beads. The protein-peptide interaction can be detected by light emission at 520-620 nm. In the presence of compounds which bind to BRD4 a lower signal is observed as the protein-peptide interaction is reduced. • 1. The assay was performed as follows: —Greiner BioOne (cat no. 784075) compound plates were used. Compounds were prepared using the Labcyte Echo Acoustic Dispenser with compounds in a final volume of 40 nl per well normalised to 0.5% (v/v) DMSO under final assay conditions. Compounds were tested in 12 point singlicate concentration response format. • 2. 4 μl of BRD4 protein (6His-TEV-BRD4, amino acid residues 42-169, corresponding to the BD1 domain) (final assay concentration=50 nM) per well was added using the Beckman Coulter BioRAPTR® Flying Reagent Dispensor Microfluidic Workstation. • 3. Incubated for 30 minutes at room temperature. • 4. Added 4 μl of acetyl lysine peptide (H4K5,8,12,16(Ac)4-biotin:(NH2-) YSGRG(K-Ac)GG(K-Ac)GLG(K-Ac)GGA(K-Ac)RHR(K-Biotin)(—COOH)) (final assay concentration=50 nM) per well using the Beckman Coulter BioRAPTR® Flying Reagent Dispensor Microfluidic Workstation. • 5. Incubated for 30 minutes at room temperature. • 6. Added 4 μl of Nickel & Streptavidin-bead solution pre-mixed (beads supplied by Perkin Elmer) per well using the BioRaptr as before (final assay concentration=4 μg/ml). Kept plates in the dark after addition. • 7. Incubated for 60 minutes at room temperature keeping the assay plate in the dark • 8. Plates were then read using the Perkin Elmer Envision plate reader, laser excitation at 680 nm and emission detected at 520-620 nm. • 9. Data was analysed using Genedata software and IC50 values calculated.

BRD3 (1) = molecular target: T3, BRD3 (1) (Homo sapiens, UniProt Q15059); assay: BROMOscan assay (DiscoverX) BRD3(1); type: binding
T3 construct: purchased Discoverx (BROMOscan service)
Experimental: as §1, §2, §3

BRD2 (1) = molecular target: T4, BRD2 (1) (Homo sapiens, UniProt P25440); assay: BROMOscan assay (DiscoverX) BRD2(1); type: binding
T4 construct: purchased Discoverx (BROMOscan service)
Experimental: as §1, §2, §3

BRDT (2) = molecular target: T5, BRDT (2) (Homo sapiens, UniProt Q58F21); assay: BROMOscan assay (DiscoverX) BRDT(2); type: binding
T5 construct: purchased Discoverx (BROMOscan service)
Experimental: as §1, §2, §3

BRDT (1) = molecular target: T6, BRDT (1) (Homo sapiens, UniProt Q58F21); assay: BROMOscan assay (DiscoverX) BRDT(1); type: binding
T6 construct: purchased Discoverx (BROMOscan service)
Experimental: as §1, §2, §3

BRD2 (2) = molecular target: T7, BRD2 (2) (Homo sapiens, UniProt P25440); assay: BROMOscan assay (DiscoverX) BRD2(2); type: binding
T7 construct: purchased Discoverx (BROMOscan service)
Experimental: as §1, §2, §3

MV-4-11 cells = assay: MV-4-11 xenograft model; type: in vivo, mouse; details: CB17 SCID mice, 10 mg/kg PO qd for 21 days, FIG. 5
Experimental: Compound A was also investigated in a xenograft model as described below.
Female CB17 SCID mice aged 6 to 8 weeks were obtained from Charles River Laboratories (Wilmington, Mass.) and maintained under specific-pathogen-free conditions in an AAALAC (Association for Assessment and Accreditation of Laboratory Animal Care)—accredited facility. Irradiated food and autoclaved water were provided ad libitum.
MV-4-11 cells ([…]) were resuspended in 0.1 ml of medium without serum and Matrigel (Becton Dickinson) at a 1:1 ratio. Cells (10^7/mouse) were injected subcutaneouly into the right flank of mice. Tumors were allowed to grow until they reached an average volume of 200 mm^3 for efficacy and then the mice were randomized into groups of 8. Compound A was solubilized in 0.5% HPMC/0.1% Tween80 for dosing. For efficacy, either vehicle or Compound A was administered PO once a day (qd) for 21 days at 10 mg/kg (mpk). Body weight and tumour volume were measured twice a week for 21 days.

BRD3 (2) = molecular target: T8, BRD3 (2) (Homo sapiens, UniProt Q15059); assay: BROMOscan assay (DiscoverX) BRD3(2); type: binding
T8 construct: purchased Discoverx (BROMOscan service)
Experimental: as §1, §2, §3

[3] = Stability under temperature and humidity conditions; type: physicochemical; details: exposed to range of temperature and humidity conditions
[4] = Hygroscopicity of co-crystal versus free base; type: physicochemical

T8 sequence (Q15059 306-415 limits assumed): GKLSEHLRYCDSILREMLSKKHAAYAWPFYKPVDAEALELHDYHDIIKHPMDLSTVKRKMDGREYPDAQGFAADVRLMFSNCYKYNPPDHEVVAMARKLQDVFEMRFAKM
T3 sequence (Q15059 34-140 limits assumed): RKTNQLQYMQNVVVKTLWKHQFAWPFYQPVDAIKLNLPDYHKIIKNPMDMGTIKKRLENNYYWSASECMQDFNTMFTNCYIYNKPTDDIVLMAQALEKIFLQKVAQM
T4 sequence (P25440 74-180 limits assumed): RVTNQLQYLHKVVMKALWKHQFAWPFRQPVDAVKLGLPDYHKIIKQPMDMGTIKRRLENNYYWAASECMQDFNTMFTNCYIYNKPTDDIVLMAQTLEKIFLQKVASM
T7 sequence (P25440 344-453 limits assumed): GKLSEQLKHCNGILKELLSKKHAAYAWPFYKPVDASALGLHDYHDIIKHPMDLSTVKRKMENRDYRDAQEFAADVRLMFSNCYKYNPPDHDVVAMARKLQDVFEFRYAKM

SMILES | GI50 (MM1.S cells) | IC50 (cMyc protein) | Kd (BRD4 (1) [1]) | Kd (BRD4 (2)) | IC50 (BRD4 (1) [2]) | pKa (pKa determination) | Kd (BRD3 (1)) | Kd (BRD2 (1)) | Kd (BRDT (2)) | Kd (BRDT (1)) | Kd (BRD2 (2)) | pKa (physchem) | Kd (BRD3 (2)) | Stability compared to Compound A free base [3] | Tumour growth inhibition (tumour volume) (MV-4-11 cells) | Hygroscopicity compared to Compound A free base [4]
COc1nnc2ccc(N3CCC(c4ccc(OCCCN5[C@H](C)CN(C(C)=O)C[C@@H]5C)cc4)CC3)nn12 [Example 4, 1-((3R,5S)-4-(3-(4-(1-(3-methoxy-[1,2,4]triazolo[4,3-b]pyridazin-6-yl)piperidin-4-yl)phenoxy)propyl)-3,5-dimethylpiperazin-1-yl)ethanone] | 0.0051 µM | 0.012 µM | 0.057 µM | 0.25 µM | 0.14 µM |  |  |  |  |  |  |  |  |  |  | 
COc1nnc2ccc(N3CCC(c4ccc(OCCCN5CCN(C)C(=O)[C@H]5C)cc4)CC3)nn12 [Example 3, (R)-4-(3-(4-(1-(3-methoxy-[1,2,4]triazolo[4,3-b]pyridazin-6-yl)piperidin-4-yl)phenoxy)propyl)-1,3-dimethylpiperazin-2-one] | 0.0075 µM | 0.025 µM | 0.11 µM | 0.34 µM | 0.3 µM |  | 0.11 µM | 0.16 µM | 0.99 µM | 0.093 µM | 0.53 µM |  | 0.67 µM |  |  | 
COc1nnc2ccc(N3CCC(c4ccc(OCCN5[C@H](C)CN(C(C)=O)C[C@@H]5C)cc4)CC3)nn12 [Example 2, 1-((3S,5R)-4-(2-(4-(1-(3-methoxy-[1,2,4]triazolo[4,3-b]pyridazin-6-yl)piperidin-4-yl)phenoxy)ethyl)-3,5-dimethylpiperazin-1-yl)ethanone] | < 0.002 µM | < 0.002 µM | 0.026 µM | 0.29 µM | 0.035 µM |  | 0.057 µM | 0.083 µM | 1.1 µM | 0.035 µM | 0.35 µM |  | 0.92 µM |  |  | 

Now from value to molecule, other results behind:

GI50 (MM1.S cells) | IC50 (cMyc protein) | Kd (BRD4 (1) [1]) | Kd (BRD4 (2)) | IC50 (BRD4 (1) [2]) | pKa (pKa determination) | Kd (BRD3 (1)) | Kd (BRD2 (1)) | Kd (BRDT (2)) | Kd (BRDT (1)) | Kd (BRD2 (2)) | pKa (physchem) | Kd (BRD3 (2)) | Stability compared to Compound A free base [3] | SMILES | Tumour growth inhibition (tumour volume) (MV-4-11 cells) | Hygroscopicity compared to Compound A free base [4]
 |  |  |  |  | 4.3 |  |  |  |  |  |  |  |  | O=C(O)c1ccc2cc(O)ccc2c1 [6-hydroxy-2-naphthoic acid] |  | 
0.0049 µM | 0.011 µM | 0.047 µM | 0.13 µM | 0.12 µM |  | 0.064 µM | 0.1 µM | 0.45 µM | 0.095 µM | 0.28 µM | < 1 | 0.43 µM |  | COc1nnc2ccc(N3CCC(c4ccc(OCCN5CCN(C)C(=O)[C@H]5C)cc4)CC3)nn12 [Example 1, (R)-4-(2-(4-(1-(3-methoxy-[1,2,4]triazolo[4,3-b]pyridazin-6-yl)piperidin-4-yl)phenoxy)ethyl)-1,3-dimethylpiperazin-2-one] | Tumour Growth Inhibition | 
 |  |  |  |  |  |  |  |  |  |  |  |  | more stable than Compound A free base | COc1nnc2ccc(N3CCC(c4ccc(OCCN5CCN(C)C(=O)[C@H]5C)cc4)CC3)nn12.O=C(O)c1ccc2cc(O)ccc2c1 [(R)-4-(2-(4-(1-(3-methoxy-[1,2,4]triazolo[4,3-b]pyridazin-6-yl)piperidin-4-yl)phenoxy)ethyl)-1,3-dimethylpiperazin-2-one:6-hydroxy-2-naphthoic acid (1:1) co-crystal] |  | significantly less hydroscopic than Compound A free base

From patent US10407432B2, “[1,2,4]triazolo[4,3-B]pyridazines for use in the treatment of proliferative diseases” (AstraZeneca AB, priority 2014, dated 2019)
